This assay concerns the target T1, dopamine D2 receptor (Homo sapiens, UniProt P14416).
T1 construct: expressed in transfected cells
The experiment in a line: Dopamine D2 receptor binding assay (displacement of [125I]-iodospiperone). As to conditions: saturation binding experiments, HEK293 D2 membranes. As for the experimental part: 1. […] The pellets were stored at −80° C. until use. […] (Beckman Ultrazentrifuge XL 80). […] 2. Receptor Binding Experiments
b) Dopamine D2 Receptor Binding Assay
Non-specific binding was defined with 1 μM haloperidol.
(In a radioligand displacement assay an active substance lowers the binding of a labelled ligand.)

pKd: −log10 of the molar value.

By pKd is commonly meant the Kd on a negative log10 scale, so that one unit is a factor of ten.

T1 sequence (P14416 whole entry): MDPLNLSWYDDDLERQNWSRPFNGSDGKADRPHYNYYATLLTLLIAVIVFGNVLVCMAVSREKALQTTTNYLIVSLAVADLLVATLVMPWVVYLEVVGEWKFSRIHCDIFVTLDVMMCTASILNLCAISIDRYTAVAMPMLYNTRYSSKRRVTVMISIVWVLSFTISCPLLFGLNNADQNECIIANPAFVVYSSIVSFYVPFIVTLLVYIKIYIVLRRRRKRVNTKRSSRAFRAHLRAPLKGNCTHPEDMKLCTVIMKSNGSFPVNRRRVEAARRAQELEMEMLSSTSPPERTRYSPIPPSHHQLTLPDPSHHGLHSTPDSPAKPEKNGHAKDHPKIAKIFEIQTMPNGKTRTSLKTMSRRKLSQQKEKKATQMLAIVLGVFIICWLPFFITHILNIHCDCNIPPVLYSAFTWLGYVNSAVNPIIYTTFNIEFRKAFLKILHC

With iodospiperone [[^125I]-iodospiperone], the pKd is 9.66.

The values above are taken from patent US8710059B2, “N-phenyl-(homo)piperazinyl-benzenesulfonyl or benzenesulfonamide compounds suitable for treating disorders that respond to the modulation of the serotonin 5-HT6 receptor” (Abbott Laboratories, priority 2010, dated 2014).
